Measured values taken from PMC10537229, “Antimicrobial Peptides Originating from Expression Libraries of Aurelia aurita and Mnemiopsis leidyi Prevent Biofilm Formation of Opportunistic Pathogens” (Microorganisms, 2023).
Entries after “also recorded” stand apart in the source; their conditions may differ.

Key:
K. oxytoca M5aI = test: Dynamic biofilm formation in microfluidic flow cell (Syto9, CLSM); format: cell-based, Klebsiella oxytoca; conditions: peptide 10 ng/channel, GC medium, flow 15 µL/h, 24 h, 30 °C, mean ± SD of four biological x four technical replicates; for biofilm thickness: medium control 11 ± 6 µm; for biofilm volume: medium control 112 ± 62 µm^3
Excerpt: The microfluidic flow cell system comprises a polymethyl methacrylate corpus with a single channel (1 × 8 × 0.1 mm). Two inlets and one outlet exist. A borosilicate glass (24 × 60 × 0.17 mm; Carl Roth, Karlsruhe, Germany) was fixed with the adhesive Black-Seal silicone (Weicon, Münster, Germany). Microliter syringes (Innovative Labor System GmbH, Stützenbach, Germany) were connected via polytetrafluoroethylene (PTFE) tubes (0.3 mm × 0.6 mm) (Bola, Grünsfeld, Germany) with the in- and outlets and clamped into a syringe pump (Model: 220) (KD Scientific, Holliston, MA, USA). The channel was sterilized by rinsing 70% EtOH for 24 h at a flow rate of 20 µL/h. Afterwards, the remaining ethanol was washed out with sterile water at 20 μL/h for 1 h. Subsequently, the channel was equilibrated with GC medium at 20 μL/h for 2 h. Inoculation was conducted with a cell suspension of 1 × 10^9 cells/mL, generated from an overnight culture of K. oxytoca M5aI. Initial cell adhesion was ensured by incubation at 30 °C for 1 h without any flow. Next, the channel was continuously rinsed at 15 μL/h with GC medium injected within the first inlet. The synthetic peptides IDR-1018 (biofilm-preventing control peptide, [47, 48], BiP_Aa_2, BiP_Aa_5, and BiP_Aa_6 were diluted in GC medium to a concentration of 25 µg/mL and injected within the second inlet. Thus, the final peptide concentration was 12.5 µg/mL, corresponding to 10 ng peptide within the 0.8 µL channel. Biofilm formation was conducted at a flow rate of 15 µL/h for 24 h at 30 °C. The biofilm formation of K. oxytoca M5aI was further studied without adding peptides. Four biological replicates were conducted for each treatment.
Biofilms were stained with the fluorescent dye Syto9 (488 nm) (Life Technologie, Carlsbad, CA, USA) and analyzed using the LSM 700 confocal laser scanning microscope (Zeiss, Oberkochen, Germany). Therefore, the microfluidic flow cells were washed with GC medium at 3 µL/min for 15 min. The channel was then filled with a 1:1000 dilution of the fluorescent dye Syto9 and incubated in the dark at RT for 30 min. Dye residues were removed by rinsing GC medium at 3 μL/min for 15 min. Four image stacks were recorded per flow cell with optical sections of 0.9 µm per z-step. The digital image acquisition, three-dimensional reconstruction, and calculation of the biofilm parameters were performed with the software “Zen Black” (version 14.0.22.201) (Zeiss, Oberkochen, Germany) and the microscopy image analysis software “Imaris” (version 9.9.0) (Oxford Instruments, Abingdon, UK).

[1] = Dimerization of peptide with increasing concentration (preliminary results); format: physicochemical
S. epidermidis = test: Growth of planktonic-growing pathogens (turbidity at 600 nm); format: cell-based, Staphylococcus epidermidis; conditions: 18 h; for turbidity (600 nm), S. epidermidis: 112.5 µg/mL peptide, LB, 80 rpm, 37 °C, mean of 2 biological x 8 technical replicates, control 1.3398
Description: (§1) In addition, the potential growth-inhibiting effects of synthetic peptides were tested on planktonic-growing pathogens. Again, 3 × 10^8 cells/mL diluted in LB medium were aliquoted in 96-well plates (200 µL for each cavity). Synthetic peptides were added to two selected final concentrations of 3.5 µg/mL and 112.5 µg/mL at the beginning of the experiment. MTPs were closed with gas-permeable membranes and gently shaken at 80 rpm and 37 °C (P. aeruginosa, S. aureus, and S. epidermidis) or 30 °C (K. oxytoca) for 18 h. A comparative endpoint determination (growth control, peptide control IDR-1018, and identified peptides) of the turbidity at 600 nm was measured with plate reader Spectra max Plus 384. An unpaired t-test was conducted as a statistical hypothesis test to determine the significance (p-value) of growth differences.

S. epidermidis RP62A = test: Biofilm prevention in vitro assay (crystal violet, static); format: cell-based, Staphylococcus epidermidis; conditions: 18 h
Description: (§2) The opportunistic pathogenic bacteria K. oxytoca (DSM 7342, M5a1-type strain), P. aeruginosa PAO1 (DSM 1707, pathogenic-type strain), S. epidermidis RP62A (DSM 28319, clinical isolate from catheter sepsis), and S. aureus (DSM 11823, clinical isolate) were grown in 5 mL LB medium overnight at below-indicated temperatures. The cell concentrations of the overnight cultures were analyzed with Neubauer cell counting and set to 3 × 10^8 cells/mL using GC minimal medium (with 1% (v/v) glycerol and 0.3% (w/v) casamino acids) for K. oxytoca and Caso bouillon (17 g/L casein peptone, 3 g/L soybean peptone, 5 g/L NaCl, 2.5 g/L K2HPO4, and 2.5 g/L glucose) for the remaining strains in the crystal violet assay. Cultures were aliquoted in 96-well plates (180/195 µL for each cavity). Cell-free size-fractionated cell extracts (20 µL) and synthesized peptides (various concentrations, 5 µL) were added to the cultures. MTPs were closed with gas-permeable membranes (Breathe-Easy®, Diversified Biotech, Dedham, MA, USA) and incubated at 37 °C (P. aeruginosa, S. aureus, and S. epidermidis) or 30 °C (K. oxytoca) for 18 h without shaking. Three biological replicates were performed, each with eight technical replicates. Medium controls were performed for normalization. Biofilm formation was monitored and quantified using the crystal violet assay. Following an 18 h incubation period, the cell cultures were removed, and the wells underwent two washes with H2O. Biofilms that developed and adhered to the surfaces were subjected to staining using 200 μL of a 0.1% crystal violet solution (Carl Roth, Karlsruhe, Germany) for 10 min at room temperature (RT). The stained biofilms were left to air dry after eliminating the crystal violet solution through two H2O washes. A total of 200 μL of 96% ethanol was introduced into each stained well to solubilize the dye, and incubation at RT for 15 min followed. Biofilm formation was assessed by measuring the absorbance of resolved crystal violet at 590 nm with the plate reader Spectra max Plus 384 (Molecular Devices, Ismaning; Germany). The screening procedure is depicted in Figure S1.

S. aureus [2] = test: Growth of planktonic-growing pathogens (turbidity at 600 nm); format: cell-based, Staphylococcus aureus; conditions: 18 h; for turbidity (600 nm), S. aureus: 112.5 µg/mL peptide, LB, 80 rpm, 37 °C, mean of 2 biological x 8 technical replicates, control 1.37192917; for reduction of planktonic growth of S. aureus: 112.5 µg/mL, versus control without peptide
Description: as §1

P. aeruginosa = test: as above; format: cell-based, Pseudomonas aeruginosa; conditions: 18 h; for turbidity (600 nm), P. aeruginosa: 112.5 µg/mL peptide, LB, 80 rpm, 37 °C, mean of 2 biological x 8 technical replicates, control 1.2788369; for reduction of planktonic growth of P. aeruginosa: 112.5 µg/mL, versus control without peptide
Description: as §1

K. oxytoca [3] = test: Biofilm prevention in vitro assay (crystal violet, static); format: cell-based, Klebsiella oxytoca; conditions: 18 h
Description: as §2

S. aureus [4] = test: as above; format: cell-based, Staphylococcus aureus; conditions: synthetic peptide 0.4-112.5 µg/mL, 18 h
Description: as §2

P. aeruginosa PAO1 = test: as above; format: cell-based, Pseudomonas aeruginosa; conditions: 18 h; for effect on P. aeruginosa biofilm formation (in words): synthetic peptide 0.4-112.5 µg/mL
Description: as §2

K. oxytoca [5] = test: Growth of planktonic-growing pathogens (turbidity at 600 nm); format: cell-based, Klebsiella oxytoca; conditions: 112.5 µg/mL peptide, LB, 18 h, 80 rpm, 30 °C; mean of 2 biological x 8 technical replicates; control 1.21326667
Description: as §1

[6] = test system: K. oxytoca, P. aeruginosa, S. epidermidis, and S. aureus; test: Crystal violet biofilm assay, statements on all tested pathogens; format: cell-based; conditions: summary in discussion
Description: as §2, with “Three biological replicates were performed, each with eight technical replicates. Medium controls were performed for normalization.” left out, “Following an 18 h incubation period, the cell cultures were removed, and the wells underwent two washes with H2O. Biofilms that developed and adhered to the surfaces were subjected to staining using 200 μL of a 0.1% crystal violet solution (Carl Roth, Karlsruhe, Germany) for 10 min at room temperature (RT). The stained biofilms were left to air dry after eliminating the crystal violet solution through two H2O washes. A total of 200 μL of 96% ethanol was introduced into each stained well to solubilize the dye, and incubation at RT for 15 min followed.” left out, “The screening procedure is depicted in Figure S1.” left out

[7] = synthetic peptide 0.4-112.5 µg/mL
[8] = synthetic peptide at highest concentration 112.5 µg/mL, versus biofilm control (100%)

Row | Sequence | biofilm thickness (K. oxytoca M5aI) [µm] | biofilm volume (K. oxytoca M5aI) [µm^3] | aggregation with increasing peptide concentration [1] | turbidity (600 nm), S. epidermidis (S. epidermidis) | effect on S. epidermidis biofilm formation (in words) (S. epidermidis RP62A; [7]) | reduction of S. epidermidis biofilm formation over concentration range (S. epidermidis RP62A; synthetic peptide 0.4-112.5 µg/mL, maximum or range of reduction) [%] | turbidity (600 nm), S. aureus (S. aureus [2]) | reduction of planktonic growth of S. aureus (S. aureus [2]) | turbidity (600 nm), P. aeruginosa (P. aeruginosa) | reduction of planktonic growth of P. aeruginosa (P. aeruginosa) | effect on K. oxytoca biofilm formation (in words) (K. oxytoca [3]; [7]) | reduction of K. oxytoca biofilm formation over concentration range (K. oxytoca [3]; synthetic peptide 0.4-112.5 µg/mL, maximum or overall reduction) | effect on S. aureus biofilm formation (in words) (S. aureus [4]) | effect on P. aeruginosa biofilm formation (in words) (P. aeruginosa PAO1) | turbidity (600 nm), K. oxytoca (K. oxytoca [5]) | reduction of planktonic growth of S. epidermidis (S. epidermidis; 112.5 µg/mL, versus control without peptide) [%] | reduction of biofilm masses, all tested pathogens [6] | reduction of S. epidermidis biofilm formation at 112.5 µg/mL (S. epidermidis RP62A; [8]) [%] | reduction of K. oxytoca biofilm formation at 112.5 µg/mL (K. oxytoca [3]; [8]) [%] | reduction of P. aeruginosa biofilm formation at 112.5 µg/mL (P. aeruginosa PAO1; synthetic peptide at highest dose 112.5 µg/mL, versus biofilm control (100%)) [%]
1 | QLFCTKLSPT [BiP_Aa_2, synthetic peptide from sORF of A. aurita EST clone 112_6C] | 8 ± 3 | 34 ± 12 | dimerization | 1.368 | appeared to reverse with increasing concentrations | 45 | 1.304 | 1.5–5% | 1.2593 | 1.5–5% | no significant change in biofilm formation until 14.1 µg/mL | up to 43% | negligible impact; also recorded: could not interfere with biofilm formation | negligible impact | 1.204 | – | – | – | – | –
2 | VRNSVLFRRRRLVC [BiP_Aa_5, synthetic peptide from sORF of A. aurita EST clone 127_8F] | 7 ± 2 | 51 ± 25 | – | 1.301 | – | – | 1.312 | 1.5–5% | 1.249 | 1.5–5% | – | – | – | slight interference | 1.257 | 3 | up to 50% | 22 | 54 | 47
